Laboratory results from patent US9108957B2 (MITSUBISHI TANABE PHARMA CORPORATION, priority 2009, dated 2015).
Counter-ions that a name gives are not always drawn.

Biological target: human recombinant TPK1 (Homo sapiens, UniProt P49841)
Experiment: Inhibitory activity against P-GS1 phosphorylation by TPK1 (Kinase Glo luminescence)
Type: biochemical
Conditions: 7.5 μM P-GS1, 10 μM ATP, 25° C. for 16 hours, Kinase Glo Reagent luminescent signal
Experimental: Inhibitory Activity of the Medicament of the Present Invention Against P-GS1 Phosphorylation by Bovine Cerebral TPK1
A mixture containing 100 mM HEPES-sodium hydroxide (pH 7.2), 1 mM magnesium acetate, 1 mM EGTA, 1 mM dithiothreitol (DTT), 0.02% Tween 20, 7.5 μM P-GS1, 10 μM ATP, human recombinant TPK1 and a compound shown in Table (a final mixture contained 1% DMSO deriving from a solution of a test compound prepared in the presence of 10% DMSO) was used as a reaction system. The phosphorylation was started by adding ATP, and the reaction was conducted at 25° C. for 16 hours. Then equal volume of Kinase Glo Reagent (Promega) was added to the mixture and luminescent signal from the mixture was measured. IC50 for each compound was calculated by setting the data of mixture without enzyme as 0% activity and that without compound as 100% activity.

human recombinant TPK1, sequence (P49841 whole entry): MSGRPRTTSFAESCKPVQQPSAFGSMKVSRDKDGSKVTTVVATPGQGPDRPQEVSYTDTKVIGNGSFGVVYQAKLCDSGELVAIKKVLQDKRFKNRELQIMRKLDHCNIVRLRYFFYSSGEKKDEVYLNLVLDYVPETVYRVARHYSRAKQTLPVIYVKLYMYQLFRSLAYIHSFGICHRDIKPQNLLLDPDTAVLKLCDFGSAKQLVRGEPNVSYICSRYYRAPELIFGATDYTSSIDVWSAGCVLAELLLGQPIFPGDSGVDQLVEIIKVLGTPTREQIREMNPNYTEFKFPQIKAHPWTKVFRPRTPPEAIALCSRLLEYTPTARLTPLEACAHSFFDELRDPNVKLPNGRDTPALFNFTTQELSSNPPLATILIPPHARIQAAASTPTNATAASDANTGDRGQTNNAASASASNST

Row | IC50 [nM] | Compound
1 | 83.4 | Cc1noc(-c2ccc(C3CCN(c4nc(-c5ccncn5)cc(=O)n4C)CCO3)cc2)n1 (single isomer, unassigned; (-)) [Compound A121, (−)-2-[7-[4-(3-methyl-1,2,4-oxadiazol-5-yl)-phenyl]-1,4-oxazepan-4-yl]-3-methyl-6-(pyrimidin-4-yl)pyrimidin-4(3H)-one]
2 | 114 | Cn1c(N2CCOC(c3ccc(Br)cc3)CC2)nc(-c2ccncn2)cc1=O (single isomer, unassigned; (-)) [Compound A122, (−)-2-(7-(4-bromophenyl)-1,4-oxazepan-4-yl)-3-methyl-6-(pyrimidin-4-yl)pyrimidin-4(3H)-one]
3 | 153 | Cn1c(N2CCOC(c3ccc(F)cc3)CC2)nc(-c2ccncc2)cc1=O (centres unmarked) [Compound A123, 2-[7-(4-fluorophenyl)-1,4-oxazepan-4-yl]-3-methyl-6-(pyridin-4-yl)pyrimidin-4(3H)-one]
4 | 12.9 | Cc1noc(-c2ccc(C3COCCN(c4nc(-c5ccncn5)cc(=O)n4C)C3)cc2)n1 (centres unmarked) [Compound A081, 2-[6-[4-(3-methyl-1,2,4-oxadiazol-5-yl)-phenyl]-1,4-oxazepan-4-yl]-3-methyl-6-(pyrimidin-4-yl)pyrimidin-4(3H)-one]
5 | 4.5 | Cn1c(N2CCCO[C@@H](c3cccc(Br)c3)C2)nc(-c2ccncc2F)cc1=O [Compound A008, (S)-2-[2-(3-bromophenyl)-1,4-oxazepan-4-yl]-6-(3-fluoropyridin-4-yl)-3-methylpyrimidin-4(3H)-one]
6 | 10.3 | COc1ccccc1C1CCN(c2nc(-c3ccncc3F)cc(=O)n2C)CCO1 (centres unmarked) [Compound A094, 2-[7-(2-methoxyphenyl)-1,4-oxazepan-4-yl]-6-(3-fluoropyridin-4-yl)-3-methylpyrimidin-4(3H)-one]
7 | 10.7 | COc1ccc(C2CCN(c3nc(-c4ccncc4F)cc(=O)n3C)CCO2)cc1 (centres unmarked) [Compound A095, 2-[7-(4-methoxyphenyl)-1,4-oxazepan-4-yl]-6-(3-fluoropyridin-4-yl)-3-methylpyrimidin-4(3H)-one]
8 | 1.2 | Cn1c(N2CCOC[C@@H](c3ccc(Br)cc3)C2)nc(-c2ccncn2)cc1=O [Compound A074, (S)-2-[6-(4-bromophenyl)-1,4-oxazepan-4-yl]-3-methyl-6-(pyrimidin-4-yl)pyrimidin-4(3H)-one]
9 | 3.1 | Cn1c(N2CCOC[C@@H](c3ccc(C#N)cc3)C2)nc(-c2ccncn2)cc1=O [Compound A076, (S)-2-[6-(4-cyanoophenyl)-1,4-oxazepan-4-yl]-3-methyl-6-(pyrimidin-4-yl)pyrimidin-4(3H)-one]
10 | 100 | Cc1noc(-c2ccc([C@@H]3CN(c4nc(-c5ccncc5F)cc(=O)n4C)CCCO3)cc2)n1 [Compound A053, (R)-2-[2-[4-(3-methyl-1,2,4-oxadiazol-5-yl)-phenyl]-1,4-oxazepan-4-yl]-6-(3-fluoropyridin-4-yl)-3-methylpyrimidin-4(3H)-one]
11 | 13 | Cn1c(N2CCCO[C@@H](c3cccc(Br)c3)C2)nc(-c2ccncc2)cc1=O [Compound A024, (S)-2-[2-(3-bromophenyl)-1,4-oxazepan-4-yl]-3-methyl-6-(pyridin-4-yl)pyrimidin-4(3H)-one]
12 | 6.1 | Cc1noc(-c2ccc(C3CCN(c4nc(-c5ccncc5F)cc(=O)n4C)CCO3)cc2)n1 (single isomer, unassigned; (+)) [Compound A090, (+)-2-[7-[4-(3-methyl-1,2,4-oxadiazol-5-yl)-phenyl]-1,4-oxazepan-4-yl]-6-(3-fluoropyridin-4-yl)-3-methylpyrimidin-4(3H)-one]
13 | 1.4 | Cn1c(N2CCOCC(c3ccccc3)C2)nc(-c2ccncn2)cc1=O (single isomer, unassigned; (-)) [Compound A075, (−)-2-(6-phenyl-1,4-oxazepan-4-yl)-3-methyl-6-(pyrimidin-4-yl)pyrimidin-4(3H)-one]
14 | 47.6 | COc1ccccc1C1CCN(c2nc(-c3ccncc3)cc(=O)n2C)CCO1 (centres unmarked) [Compound A115, 2-(7-(2-methoxyphenyl)-1,4-oxazepan-4-yl)-3-methyl-6-(pyridin-4-yl)pyrimidin-4(3H)-one]
15 | 72.2 | Cn1c(N2CCOC(c3ccc(Br)cc3)CC2)nc(-c2ccncc2)cc1=O (single isomer, unassigned; (+)) [Compound A119, (+)-2-[7-(4-bromophenyl)-1,4-oxazepan-4-yl]-3-methyl-6-(pyridin-4-yl)pyrimidin-4(3H)-one]
16 | 11.4 | Cn1c(N2CCCO[C@@H](c3cccc(C#N)c3)C2)nc(-c2ccncc2F)cc1=O [Compound A020]
17 | 17.3 | CC1CCOCCN1c1nc(-c2ccncn2)cc(=O)n1C (centres unmarked) [Compound A070, 3-methyl-2-(5-methyl-1,4-oxazepan-4-yl)-6-(pyrimidin-4-yl)pyrimidin-4(3H)-one]
18 | 54.7 | COc1ccc(C2CCN(c3nc(-c4ccncn4)cc(=O)n3C)CCO2)cc1 (centres unmarked) [Compound A117, 2-(7-(4-methoxyphenyl)-1,4-oxazepan-4-yl)-3-methyl-6-(pyrimidin-4-yl)pyrimidin-4(3H)-one]

Row | IC50 [nM] | Compound
19 | 92.1 | Cc1nc(-c2ccc([C@@H]3CN(c4nc(-c5ccncc5F)cc(=O)n4C)CCCO3)cc2)no1 [Compound A052, (R)-2-[2-[4-(5-methyl-1,2,4-oxadiazol-3-yl)-phenyl]-1,4-oxazepan-4-yl]-6-(3-fluoropyridin-4-yl)-3-methylpyrimidin-4(3H)-one]
20 | 207 | Cn1c(N2CCCO[C@H](c3ccc(F)cc3)C2)nc(-c2ccncc2)cc1=O [Compound A057, (R)-2-(2-(4-fluorophenyl)-1,4-oxazepan-4-yl)-3-methyl-6-(pyridin-4-yl)pyrimidin-4(3H)-one]
21 | 12.5 | Cn1c(N2CCCO[C@@H](c3ccc(F)cc3)C2)nc(-c2ccncc2)cc1=O [Compound A022, (S)-2-[2-(4-fluorophenyl)-1,4-oxazepan-4-yl]-3-methyl-6-(pyridin-4-yl)pyrimidin-4(3H)-one]
22 | 7.3 | Cn1c(N2CCCO[C@@H](c3cccc(Br)c3)C2)nc(-c2ccncn2)cc1=O [Compound A079, (S)-2-[2-(3-bromophenyl)-1,4-oxazepan-4-yl]-3-methyl-6-(pyrimidin-4-yl)pyrimidin-4(3H)-one]
23 | 195 | CCC1CCOCCN1c1nc(-c2ccncn2)cc(=O)n1C (centres unmarked) [Compound A073, 3-methyl-2-(5-ethyl-1,4-oxazepan-4-yl)-6-(pyrimidin-4-yl)pyrimidin-4(3H)-one]
24 | 9.3 | Cn1c(N2CCCO[C@@H](c3cccc(C(N)=O)c3)C2)nc(-c2ccncn2)cc1=O [Compound A015, (S)-2-[2-(3-aminocarbonylphenyl)-1,4-oxazepan-4-yl]-3-methyl-6-(pyrimidin-4-yl)pyrimidin-4(3H)-one]
25 | 27 | Cn1c(N2CCCOC(c3ccc(F)cc3)C2)nc(-c2ccncc2)cc1=O (centres unmarked) [Compound A035, 2-[2-(4-fluorophenyl)-1,4-oxazepan-4-yl]-3-methyl-6-(pyridin-4-yl)pyrimidin-4(3H)-one hydrochloride]
26 | 80.3 | CC1CN(c2nc(-c3ccncn3)cc(=O)n2C)CCCO1 (centres unmarked) [Compound A051, 2-(2-methyl-1,4-oxazepan-4-yl)-3-methyl-6-(pyrimidin-4-yl)pyrimidin-4(3H)-one]
27 | 41 | Cn1c(N2CCOCCC2c2ccccc2)nc(-c2ccncn2)cc1=O (centres unmarked) [Compound A071, 3-methyl-2-(5-phenyl-1,4-oxazepan-4-yl)-6-(pyrimidin-4-yl)pyrimidin-4(3H)-one]
28 | 2.3 | Cn1c(N2CCCOC(c3ccccc3)C2)nc(-c2ccncc2F)cc1=O (centres unmarked) [Compound A006, 2-(2-phenyl-1,4-oxazepan-4-yl)-6-(3-fluoropyridin-4-yl)-3-methylpyrimidin-4(3H)-one]
29 | 80.1 | CC1COCCN(c2nc(-c3ccncn3)cc(=O)n2C)C1 (centres unmarked) [Compound A087, 2-(6-methyl-1,4-oxazepan-4-yl)-3-methyl-6-(pyrimidin-4-yl)pyrimidin-4(3H)-one]
30 | 221 | Cn1c(N2CCCO[C@H](c3ccc(Br)cc3)C2)nc(-c2ccncn2)cc1=O [Compound A058, (R)-2-(2-(4-bromophenyl)-1,4-oxazepan-4-yl)-3-methyl-6-(pyrimidin-4-yl)pyrimidin-4(3H)-one]
31 | 30.9 | Cn1c(N2CCCO[C@H](c3ccc(C(N)=O)cc3)C2)nc(-c2ccncc2F)cc1=O [Compound A038, (R)-2-[2-(4-aminocarbonylphenyl)-1,4-oxazepan-4-yl]-6-(3-fluoropyridin-4-yl)-3-methylpyrimidin-4(3H)-one]
32 | 13.2 | Cn1c(N2CCOCC(c3ccc(-c4ncon4)cc3)C2)nc(-c2ccncn2)cc1=O (centres unmarked) [Compound A082, 2-[6-[4-(1,2,4-oxadiazol-3-yl)-phenyl]-1,4-oxazepan-4-yl]-3-methyl-6-(pyrimidin-4-yl)-pyrimidin-4(3H)-one]
33 | 77.4 | Cc1nc(-c2ccc([C@H]3CN(c4nc(-c5ccncc5)cc(=O)n4C)CCCO3)cc2)no1 [Compound A050, (S)-2-[2-[4-(5-methyl-[1,2,4]oxadiazol-3-yl)-phenyl]-1,4-oxazepan-4-yl]-3-methyl-6-(pyridin-4-yl)pyrimidin-4(3H)-one]
34 | 10.8 | Cn1c(N2CCOCC(c3ccc(-c4ncno4)cc3)C2)nc(-c2ccncn2)cc1=O (centres unmarked) [Compound A080, 2-[6-[4-(1,2,4-oxadiazol-5-yl)-phenyl]-1,4-oxazepan-4-yl]-3-methyl-6-(pyrimidin-4-yl)pyrimidin-4(3H)-one]
35 | 30.8 | Cn1c(N2CCCO[C@@H](c3ccc(C#N)cc3)C2)nc(-c2ccncc2)cc1=O [Compound A037, (S)-2-(2-(4-cyanophenyl)-1,4-oxazepan-4-yl)-3-methyl-6-(pyridin-4-yl)pyrimidin-4(3H)-one]
